The target of the test is recombinant human NK3 receptor (Homo sapiens (Human), UniProt P29371). The experiment in a line: biochemical. The format is binding. The following applies: read-out: Data Ki (hNK-3 receptor affinity).
The mark [1] stands for this setting: [3H]SR142801, membranes of HEK293 cells transiently expressing recombinant human NK3 receptor.

pKi: −log10 of the molar value. Read-outs that look alike come from different tables or passages of the source.

This is an account of results in patent publication US9346786B2, “Pyrrolidine compounds” (Hoffmann-La Roche Inc., priority 2009, dated 2016).

Chain of recombinant human NK3 receptor (P29371 whole entry): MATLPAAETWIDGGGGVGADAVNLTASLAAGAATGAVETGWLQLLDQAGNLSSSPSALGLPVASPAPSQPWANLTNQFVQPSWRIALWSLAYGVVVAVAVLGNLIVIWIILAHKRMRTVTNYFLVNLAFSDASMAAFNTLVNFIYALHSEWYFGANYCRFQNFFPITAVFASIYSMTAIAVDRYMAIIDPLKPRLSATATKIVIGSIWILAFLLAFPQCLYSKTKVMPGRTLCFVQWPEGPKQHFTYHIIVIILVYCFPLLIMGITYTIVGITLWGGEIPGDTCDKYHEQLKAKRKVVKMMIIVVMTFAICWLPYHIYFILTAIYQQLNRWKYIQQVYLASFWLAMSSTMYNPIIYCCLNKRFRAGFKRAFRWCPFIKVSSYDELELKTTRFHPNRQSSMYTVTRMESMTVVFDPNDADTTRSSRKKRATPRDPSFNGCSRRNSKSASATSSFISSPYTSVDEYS

`CCN(C(=O)Oc1ccc(F)cc1)[C@@H]1CN(C(=O)C2CCN(c3cnc(C#N)cn3)CC2)C[C@H]1c1ccc(Cl)c(F)c1` [Example 61, {(3S,4R)-4-(4-Chloro-3-fluoro-phenyl)-1-[1-(5-cyano-pyrazin-2-yl)-piperidine-4-carbonyl]-pyrrolidin-3-yl}-ethyl-carbamic acid 4-fluoro-phenyl ester]: under setting [1], the pKi was 9.10.
Same read-out and setting: with `CCN(C(=O)Oc1ccc(F)cc1)[C@@H]1CN(C(=O)C2CCN(c3ccc(C#N)cn3)CC2)C[C@H]1c1ccc(F)cc1` [Example 35, [(3S,4R)-1-(5′-Cyano-3,4,5,6-tetrahydro-2H-[1,2′]bipyridinyl-4-carbonyl)-4-(4-fluoro-phenyl)-pyrrolidin-3-yl]-ethyl-carbamic acid 4-fluoro-phenyl ester] the figure was 8.40.
Still for that read-out and setting: the same measure for `CCN(C(=O)Oc1ccc(F)cc1)[C@@H]1CN(C(=O)C2CCN(C(=O)C3(C(F)(F)F)CCC3)CC2)C[C@H]1c1ccc(Cl)c(F)c1` [Example 68, {(3S,4R)-4-(4-Chloro-3-fluoro-phenyl)-1-[1-(1-trifluoromethyl-cyclobutanecarbonyl)-piperidine-4-carbonyl]-pyrrolidin-3-yl}-ethyl-carbamic acid 4-fluoro-phenyl ester]: 8.70.
As for `CCN(C(=O)Oc1ccc(F)cc1)[C@@H]1CN(C(=O)C2CCN(c3cc(C#N)ccn3)CC2)C[C@H]1c1ccc(Cl)c(F)c1` [Example 45, [(3S,4R)-4-(4-Chloro-3-fluoro-phenyl)-1-(4′-cyano-3,4,5,6-tetrahydro-2H-[1,2′]bipyridinyl-4-carbonyl)-pyrrolidin-3-yl]-ethyl-carbamic acid 4-fluoro-phenyl ester], the negative logarithm of the Ki (pKi) was 8.52.
Take `CCN(C(=O)Oc1ccc(F)cc1)[C@@H]1CN(C(=O)C2CCN(c3ccc(F)cn3)CC2)C[C@H]1c1ccc(F)c(Cl)c1` [Example 117, [(3S,4R)-4-(3-Chloro-4-fluoro-phenyl)-1-(5′-fluoro-3,4,5,6-tetrahydro-2H-[1,2′]bipyridinyl-4-carbonyl)-pyrrolidin-3-yl]-ethyl-carbamic acid 4-fluoro-phenyl ester]: under setting [1], the negative-log Ki (pKi) is 8.48.
`CCN(C(=O)Oc1ccccc1F)[C@@H]1CN(C(=O)C2CCN(C(=O)C3(C)COC3)CC2)C[C@H]1c1ccc(Cl)cc1` [Example 84, {(3S,4R)-4-(4-Chloro-phenyl)-1-[1-(3-methyl-oxetane-3-carbonyl)-piperidine-4-carbonyl]-pyrrolidin-3-yl}-ethyl-carbamic acid 2-fluoro-phenyl ester]: under setting [1], the pKi is 7.53.
On the same count and under the same terms, with `CCN(C(=O)Oc1ccc(F)cc1)[C@@H]1CN(C(=O)C2CCN(c3ccc(C)cn3)CC2)C[C@H]1c1ccc(Cl)c(F)c1` [Example 47, [(3S,4R)-4-(4-Chloro-3-fluoro-phenyl)-1-(5′-methyl-3,4,5,6-tetrahydro-2H-[1,2′]bipyridinyl-4-carbonyl)-pyrrolidin-3-yl]-ethyl-carbamic acid 4-fluoro-phenyl ester] the figure was 8.70; with `CCN(C(=O)Oc1ccc(F)cc1)[C@@H]1CN(C(=O)C2CCN(c3ccc(C(N)=O)cn3)CC2)C[C@H]1c1ccc(Cl)cc1` [Example 111, [(3S,4R)-1-(5′-Carbamoyl-3,4,5,6-tetrahydro-2H-[1,2′]bipyridinyl-4-carbonyl)-4-(4-chloro-phenyl)-pyrrolidin-3-yl]-ethyl-carbamic acid 4-fluoro-phenyl ester], 8.13.
Same read-out and setting: with `CCN(C(=O)Oc1ccc(F)cc1)[C@@H]1CN(C(=O)C2CCN(c3ccc(C(C)=O)cn3)CC2)C[C@H]1c1ccc(Cl)c(Cl)c1` [Example 116, [(3S,4R)-1-(5′-Acetyl-3,4,5,6-tetrahydro-2H-[1,2′]bipyridinyl-4-carbonyl)-4-(3,4-dichloro-phenyl)-pyrrolidin-3-yl]-ethyl-carbamic acid 4-fluoro-phenyl ester] the figure was 9.30; with `CCN(C(=O)Oc1ccc(F)cc1)[C@@H]1CN(C(=O)C2CCN(C(=O)C3(C)CC3)CC2)C[C@H]1c1ccc(Cl)c(F)c1` [Example 44, {(3S,4R)-4-(4-Chloro-3-fluoro-phenyl)-1-[1-(1-methyl-cyclopropanecarbonyl)-piperidine-4-carbonyl]-pyrrolidin-3-yl}-ethyl-carbamic acid 4-fluoro-phenyl ester], 8.70; with `CCN(C(=O)Oc1ccc(F)cc1)[C@@H]1CN(C(=O)C2CCN(C(=O)[C@@H]3CC(=O)N3)CC2)C[C@H]1c1ccc(Cl)cc1` [Example 121, {(3S,4R)-4-(4-Chloro-phenyl)-1-[1-((S)-4-oxo-azetidine-2-carbonyl)-piperidine-4-carbonyl]-pyrrolidin-3-yl}-ethyl-carbamic acid 4-fluoro-phenyl ester], 7.77.
On the same count and under the same terms, the same measure for `CCN(C(=O)Oc1ccc(F)cc1)[C@@H]1CN(C(=O)C2CCNCC2)C[C@H]1c1ccc(Cl)c(F)c1` [Example 56, [(3S,4R)-4-(4-Chloro-3-fluoro-phenyl)-1-(piperidine-4-carbonyl)-pyrrolidin-3-yl]-ethyl-carbamic acid 4-fluoro-phenyl ester]: 6.57; for `CCN(C(=O)Oc1ccc(F)cc1)[C@@H]1CN(C(=O)C2CCN(C(=O)C3(C(F)(F)F)CC3)CC2)C[C@H]1c1ccc(Cl)cc1` [Example 95, {(3S,4R)-4-(4-Chloro-phenyl)-1-[1-(1-trifluoromethyl-cyclopropanecarbonyl)-piperidine-4-carbonyl]-pyrrolidin-3-yl}-ethyl-carbamic acid 4-fluoro-phenyl ester]: 8.21.
Consider `CCN(C(=O)Oc1ccc(F)cc1)[C@H]1CN(C(=O)C2CCN(C(=O)C3(C)CC3)CC2)C[C@@H]1c1ccc(Cl)c(Cl)c1` [Example 6, {(3R,4S)-4-(3,4-Dichloro-phenyl)-1-[1-(1-methyl-cyclopropanecarbonyl)-piperidine-4-carbonyl]-pyrrolidin-3-yl}-ethyl-carbamic acid 4-fluoro-phenyl ester], for which the pKi was 7.21.
Take `CCN(C(=O)Oc1ccc(F)cc1)[C@@H]1CN(C(=O)C2CCN(c3ccc(Cl)cn3)CC2)C[C@H]1c1ccc(Cl)c(F)c1` [Example 41, [(3S,4R)-4-(4-Chloro-3-fluoro-phenyl)-1-(5′-chloro-3,4,5,6-tetrahydro-2H-[1,2′]bipyridinyl-4-carbonyl)-pyrrolidin-3-yl]-ethyl-carbamic acid 4-fluoro-phenyl ester]: the negative-log Ki (pKi) under setting [1] is 9.22.
Take `CCN(C(=O)Oc1ccc(F)cc1)[C@@H]1CN(C(=O)C2CCN(c3ncc(C#N)cn3)CC2)C[C@H]1c1ccc(Cl)cc1` [Example 13, {(3S,4R)-4-(4-Chloro-phenyl)-1-[1-(5-cyano-pyrimidin-2-yl)-piperidine-4-carbonyl]-pyrrolidin-3-yl}-ethyl-carbamic acid 4-fluoro-phenyl ester]: the pKi under setting [1] was 8.10.
As for `N#Cc1ccc(N2CCC(C(=O)N3C[C@@H](N(C(=O)Oc4ccc(F)cc4)C4CC4)[C@H](c4ccc(Cl)cc4)C3)CC2)nn1` [Example 32, {(3S,4R)-4-(4-Chloro-phenyl)-1-[1-(6-cyano-pyridazin-3-yl)-piperidine-4-carbonyl]-pyrrolidin-3-yl}-cyclopropyl-carbamic acid 4-fluoro-phenyl ester], the pKi is 7.28.
Consider `CCN(C(=O)Oc1ccc(F)cc1)[C@@H]1CN(C(=O)C2CCN(c3ccc(C(C)=O)cn3)CC2)C[C@H]1c1ccc(F)c(F)c1` [Example 60, [(3S,4R)-1-(5′-Acetyl-3,4,5,6-tetrahydro-2H-[1,2′]bipyridinyl-4-carbonyl)-4-(3,4-difluoro-phenyl)-pyrrolidin-3-yl]-ethyl-carbamic acid 4-fluoro-phenyl ester], for which, under setting [1], the negative logarithm of the Ki (pKi) is 8.40.
Take `N#Cc1cnc(N2CCC(C(=O)N3C[C@@H](N(C(=O)Oc4ccc(F)cc4)C4CC4)[C@H](c4ccc(Cl)cc4)C3)CC2)cn1` [Example 33, {(3S,4R)-4-(4-Chloro-phenyl)-1-[1-(5-cyano-pyrazin-2-yl)-piperidine-4-carbonyl]-pyrrolidin-3-yl}-cyclopropyl-carbamic acid 4-fluoro-phenyl ester]: the pKi was 7.32.
Take `CCN(C(=O)Oc1ccc(F)cc1)[C@@H]1CN(C(=O)C2CCN(C(=O)C3CC(OC)C3)CC2)C[C@H]1c1ccc(Cl)cc1` (stereo partly drawn) [Example 91, {(3S,4R)-4-(4-Chloro-phenyl)-1-[1-(3-methoxy-cyclobutanecarbonyl)-piperidine-4-carbonyl]-pyrrolidin-3-yl}-ethyl-carbamic acid 4-fluoro-phenyl ester]: the pKi under setting [1] is 8.19.
Take `CCN(C(=O)Oc1ccc(F)cc1)[C@@H]1CN(C(=O)C2CCN(c3cnc(C#N)cn3)CC2)C[C@H]1c1ccc(F)c(F)c1` [Example 62, [(3S,4R)-1-[1-(5-Cyano-pyrazin-2-yl)-piperidine-4-carbonyl]-4-(3,4-difluoro-phenyl)-pyrrolidin-3-yl]-ethyl-carbamic acid 4-fluoro-phenyl ester]: under setting [1], the pKi was 8.22.
The same measure, in the same setting: the same measure for `CCN(C(=O)Oc1ccc(F)cc1)[C@@H]1CN(C(=O)C2CCN(c3ccc(Cl)cn3)CC2)C[C@H]1c1ccc(F)c(Cl)c1` [Example 118, [(3S,4R)-4-(3-Chloro-4-fluoro-phenyl)-1-(5′-chloro-3,4,5,6-tetrahydro-2H-[1,2′]bipyridinyl-4-carbonyl)-pyrrolidin-3-yl]-ethyl-carbamic acid 4-fluoro-phenyl ester]: 8.74; for `CCN(C(=O)Oc1ccc(F)cc1)[C@@H]1CN(C(=O)C2CCN(C(=O)C3CC3(C)C)CC2)C[C@H]1c1ccc(Cl)cc1` (stereo partly drawn) [Example 100, {(3S,4R)-4-(4-Chloro-phenyl)-1-[1-(2,2-dimethyl-cyclopropanecarbonyl)-piperidine-4-carbonyl]-pyrrolidin-3-yl}-ethyl-carbamic acid 4-fluoro-phenyl ester]: 8.44.
As for `CCN(C(=O)Oc1ccccc1F)[C@@H]1CN(C(=O)C2CCN(C(=O)c3ccc(C(F)(F)F)cn3)CC2)C[C@H]1c1ccc(Cl)cc1` [Example 86, {(3S,4R)-4-(4-Chloro-phenyl)-1-[1-(5-trifluoromethyl-pyridine-2-carbonyl)-piperidine-4-carbonyl]-pyrrolidin-3-yl}-ethyl-carbamic acid 2-fluoro-phenyl ester], the pKi is 7.15.
